From EP4667483A1, “HUMAN TRANSFERRIN RECEPTOR-BINDING PEPTIDE” (JCR Pharmaceuticals Co., Ltd., priority 2023, dated 2024)
Numbered stars: 1 amine (or outer) side, 2 acyl side, 3 side chain; on linkers, the order of the positions; unused ones are H or OH. Bridge positions count the residues as written; N and C are the ends. Square brackets hold non-standard residues; d marks the D form. Peptide text beside a SMILES is read from it. * marks the point of attachment. Trp(1-CH2COOH) = N[C@@H](Cc1cn(CC(=O)O)c2ccccc12)C(=O)O; NMePhe(4-COOH) = CN[C@@H](Cc1ccc(C(=O)O)cc1)C(=O)O; Nle(6-morpholino) = N[C@@H](CCCCN1CCOCC1)C(=O)O; X2 = O=C([C@H](Cc1cn(CCO)c2ccccc12)N[*:1])[*:2]; Phe(3-COOH) = N[C@@H](Cc1cccc(C(=O)O)c1)C(=O)O; NH(CH2CH2O)8Me = COCCOCCOCCOCCOCCOCCOCCOCCN*; NMePhe(3-Cl) = CN[C@@H](Cc1cccc(Cl)c1)C(=O)O; NMePhe(4-Cl) = CN[C@@H](Cc1ccc(Cl)cc1)C(=O)O; 3Pal(6-NH2) = Nc1ccc(C[C@H](N)C(=O)O)cn1; NMeY = CN[C@@H](Cc1ccc(O)cc1)C(=O)O; Nva(3-Et) = CCC(CC)[C@H](N)C(=O)O; PEG4 = NCCOCCOCCOCCOCCC(=O)O; Carboxymethyl = O=C(O)C*

Assays:
Format in all cases: binding
[1] = target: T1, human transferrin receptor (hTfR) (Homo sapiens, UniProt P02786); assay: SPR measurement under pH 6.0 conditions (Biacore T200, NTA chip, immobilized hTfR); settings: SPR, pH 6.0; read-out: hTfR SPR pH6.0 KD
T1 sequence (P02786 whole entry): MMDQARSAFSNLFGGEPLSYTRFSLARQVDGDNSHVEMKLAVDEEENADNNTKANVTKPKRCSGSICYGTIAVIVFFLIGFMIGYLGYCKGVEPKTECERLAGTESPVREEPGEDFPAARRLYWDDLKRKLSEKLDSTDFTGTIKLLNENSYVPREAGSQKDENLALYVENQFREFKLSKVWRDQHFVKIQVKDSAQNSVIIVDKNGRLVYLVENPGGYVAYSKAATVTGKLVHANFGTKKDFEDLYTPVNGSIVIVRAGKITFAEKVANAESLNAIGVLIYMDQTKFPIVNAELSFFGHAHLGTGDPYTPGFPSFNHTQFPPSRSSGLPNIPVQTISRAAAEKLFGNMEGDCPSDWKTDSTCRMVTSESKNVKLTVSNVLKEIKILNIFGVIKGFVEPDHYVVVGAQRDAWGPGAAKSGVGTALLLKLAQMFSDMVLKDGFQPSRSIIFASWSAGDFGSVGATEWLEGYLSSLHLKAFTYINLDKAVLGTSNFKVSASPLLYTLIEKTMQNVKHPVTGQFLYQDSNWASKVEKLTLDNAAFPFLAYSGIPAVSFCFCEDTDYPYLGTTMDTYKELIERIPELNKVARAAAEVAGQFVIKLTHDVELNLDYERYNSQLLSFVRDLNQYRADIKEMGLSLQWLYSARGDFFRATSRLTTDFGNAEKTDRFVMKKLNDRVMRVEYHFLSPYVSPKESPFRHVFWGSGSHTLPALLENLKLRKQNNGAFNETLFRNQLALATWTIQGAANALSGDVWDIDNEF

[2] = target: T1, human transferrin receptor (hTfR); assay: SPR measurement under pH 7.4 conditions (Biacore T200, CM3 chip, hTfR captured by His Tag antibody); settings: SPR, pH 7.4; read-out: hTfR SPR pH7.4 KD
[3] = target: T1, human transferrin receptor (hTfR); assay: Evaluation of pH dependence (ratio of SPR koff or KD at pH 6.0 to pH 7.4); settings: ratio of koff at pH 6.0 to pH 7.4
Protocol: The ratio of the calculated koff or KD values under pH 6.0 conditions to those under pH 7.4 conditions was calculated to check pH dependency.

With `CCC(CC)[C@@H]1NC(=O)[C@H](Cc2ccc(OCC(=O)O)cc2)NC(=O)[C@H](Cc2ccc(O)cc2)NC(=O)[C@H](CC(N)=O)NC(=O)[C@H](Cc2c[nH]c3ccccc23)NC(=O)[C@H](C(C)C)NC(=O)[C@H](Cc2cccc(Cl)c2)N(C)C(=O)[C@H](C(C)C)NC(=O)[C@H](C)NC(=O)CSC[C@@H](C(=O)NCCOCCOCCOCCOCCC(N)=O)NC(=O)[C@H](Cc2ccc(O)cc2)N(C)C(=O)[C@H](Cc2cccc(C(=O)O)c2)NC(=O)[C@H](CCCNC(=N)N)NC(=O)[C@H](CCC(N)=O)NC(=O)[C@H]([C@@H](C)CC)NC1=O` [compound 75] ({CH2CO}-AV[NMePhe(3-Cl)]VWNYY(Carboxymethyl)[Nva(3-Et)]IQR[Phe(3-COOH)][NMeY]C[PEG4]-NH2; thioether N-15) the Kd [1] was 0.00633 µM, the Kd [2] was 0.00162 µM and the “dependency koff pH6.0/7.4” value [3] was 34.44.

With `CC[C@H](C)[C@@H]1NC(=O)[C@H](Cc2ccc(OCC(=O)O)cc2)NC(=O)[C@H](Cc2ccc(O)cc2)NC(=O)[C@H](CC(N)=O)NC(=O)[C@H](Cc2cn(CCO)c3ccccc23)NC(=O)[C@H](C(C)C)NC(=O)[C@H](Cc2cccc(Cl)c2)N(C)C(=O)[C@H](C(C)C)NC(=O)[C@H](C)NC(=O)CSC[C@@H](C(=O)NCCOCCOCCOCCOCCC(N)=O)NC(=O)[C@H](Cc2ccc(O)cc2)N(C)C(=O)[C@H](Cc2cccc(C(=O)O)c2)NC(=O)[C@H](CCCNC(=N)N)NC(=O)[C@H](CCC(N)=O)NC(=O)[C@H]([C@@H](C)O)NC1=O` [compound 76] ({CH2CO}-AV[NMePhe(3-Cl)]V[X2]NYY(Carboxymethyl)ITQR[Phe(3-COOH)][NMeY]C[PEG4]-NH2; thioether N-15) the Kd [1] was 0.017 µM, the Kd [2] was 0.013 µM and the “dependency koff pH6.0/7.4” value [3] was 3.37.

With `CCC(CC)[C@@H]1NC(=O)[C@H](Cc2ccc(OCC(=O)O)cc2)NC(=O)[C@H](Cc2ccc(N)nc2)NC(=O)[C@H](CC(N)=O)NC(=O)[C@H](Cc2c[nH]c3ccccc23)NC(=O)[C@H](C(C)C)NC(=O)[C@H](Cc2cccc(Cl)c2)N(C)C(=O)[C@H](C(C)C)NC(=O)[C@H](C)NC(=O)CSC[C@@H](C(=O)NCCOCCOCCOCCOCCC(N)=O)NC(=O)[C@H](Cc2ccc(O)cc2)N(C)C(=O)[C@H](Cc2cccc(C(=O)O)c2)NC(=O)[C@H](CCCNC(=N)N)NC(=O)[C@H](CCC(=O)NCCOCCOCCOCCOCCOCCOCCOCCOC)NC(=O)[C@H]([C@@H](C)CC)NC1=O` [compound 82] ({CH2CO}-AV[NMePhe(3-Cl)]VWN[3Pal(6-NH2)]Y(Carboxymethyl)[Nva(3-Et)]IE(NH(CH2CH2O)8Me)R[Phe(3-COOH)][NMeY]C[PEG4]-NH2; thioether N-15) the Kd [1] was 0.252 µM, the Kd [2] was 0.0271 µM and the “dependency koff pH6.0/7.4” value [3] was 20.39.

With `CCC(CC)[C@@H]1NC(=O)[C@H](Cc2ccc(OCC(=O)O)cc2)NC(=O)[C@H](Cc2ccc(N)nc2)NC(=O)[C@H](CC(N)=O)NC(=O)[C@H](Cc2cn(CC(=O)O)c3ccccc23)NC(=O)[C@H](C(C)C)NC(=O)[C@H](Cc2cccc(Cl)c2)N(C)C(=O)[C@H](C(C)C)NC(=O)[C@H](C)NC(=O)CSC[C@@H](C(=O)NCCOCCOCCOCCOCCC(N)=O)NC(=O)[C@H](Cc2ccc(O)cc2)N(C)C(=O)[C@H](Cc2cccc(C(=O)O)c2)NC(=O)[C@H](CCCCN2CCOCC2)NC(=O)[C@H](CCCCN2CCOCC2)NC(=O)[C@H]([C@@H](C)CC)NC1=O` [compound 83] ({CH2CO}-AV[NMePhe(3-Cl)]V[Trp(1-CH2COOH)]N[3Pal(6-NH2)]Y(Carboxymethyl)[Nva(3-Et)]I[Nle(6-morpholino)][Nle(6-morpholino)][Phe(3-COOH)][NMeY]C[PEG4]-NH2; thioether N-15) the Kd [1] was 0.144 µM, the Kd [2] was 0.0437 µM and the “dependency koff pH6.0/7.4” value [3] was 32.62.

With `CCC(CC)[C@@H]1NC(=O)[C@H](Cc2ccc(OCC(=O)O)cc2)NC(=O)[C@H](Cc2ccc(N)nc2)NC(=O)[C@H](CC(N)=O)NC(=O)[C@H](Cc2cn(CC(=O)O)c3ccccc23)NC(=O)[C@H](C(C)C)NC(=O)[C@H](Cc2cccc(Cl)c2)N(C)C(=O)[C@H](C(C)C)NC(=O)[C@H](C)NC(=O)CSC[C@@H](C(=O)NCCOCCOCCOCCOCCC(N)=O)NC(=O)[C@H](Cc2ccc(O)cc2)N(C)C(=O)[C@H](Cc2cccc(C(=O)O)c2)NC(=O)[C@H](CCCNC(=N)N)NC(=O)[C@H](CCC(N)=O)NC(=O)[C@H]([C@@H](C)CC)NC1=O` [compound 84] ({CH2CO}-AV[NMePhe(3-Cl)]V[Trp(1-CH2COOH)]N[3Pal(6-NH2)]Y(Carboxymethyl)[Nva(3-Et)]IQR[Phe(3-COOH)][NMeY]C[PEG4]-NH2; thioether N-15) the Kd [1] was 0.219 µM, the Kd [2] was 1.91 µM and the “dependency koff pH6.0/7.4” value [3] was 17.42.

For `CCC(CC)[C@@H]1NC(=O)[C@H](Cc2ccc(OCC(=O)O)cc2)NC(=O)[C@H](Cc2ccc(N)nc2)NC(=O)[C@H](CC(N)=O)NC(=O)[C@H](Cc2cn(CC(=O)O)c3ccccc23)NC(=O)[C@H](C(C)C)NC(=O)[C@H](Cc2cccc(Cl)c2)N(C)C(=O)[C@H](C(C)C)NC(=O)[C@H](C)NC(=O)CSC[C@@H](C(=O)NCCOCCOCCOCCOCCC(N)=O)NC(=O)[C@H](Cc2ccc(C(=O)O)cc2)N(C)C(=O)[C@H](Cc2cccc(C(=O)O)c2)NC(=O)[C@H](CCCNC(=N)N)NC(=O)[C@H](CCC(N)=O)NC(=O)[C@H]([C@@H](C)CC)NC1=O` [compound 87] ({CH2CO}-AV[NMePhe(3-Cl)]V[Trp(1-CH2COOH)]N[3Pal(6-NH2)]Y(Carboxymethyl)[Nva(3-Et)]IQR[Phe(3-COOH)][NMePhe(4-COOH)]C[PEG4]-NH2; thioether N-15), the Kd [1] was 0.466 µM, the Kd [2] was 0.175 µM and the “dependency koff pH6.0/7.4” value [3] was 17.51.

In the case of `CCC(CC)[C@@H]1NC(=O)[C@H](Cc2ccc(OCC(=O)O)cc2)NC(=O)[C@H](Cc2ccc(O)cc2)NC(=O)[C@H](CC(N)=O)NC(=O)[C@H](Cc2cn(CC(=O)O)c3ccccc23)NC(=O)[C@H](C(C)C)NC(=O)[C@H](Cc2cccc(Cl)c2)N(C)C(=O)[C@H](C(C)C)NC(=O)[C@H](C)NC(=O)CSC[C@@H](C(=O)NCCOCCOCCOCCOCCC(N)=O)NC(=O)[C@H](Cc2ccc(O)cc2)N(C)C(=O)[C@H](Cc2cccc(C(=O)O)c2)NC(=O)[C@H](CCCNC(=N)N)NC(=O)[C@H](CCC(N)=O)NC(=O)[C@H]([C@@H](C)CC)NC1=O` [compound 88] ({CH2CO}-AV[NMePhe(3-Cl)]V[Trp(1-CH2COOH)]NYY(Carboxymethyl)[Nva(3-Et)]IQR[Phe(3-COOH)][NMeY]C[PEG4]-NH2; thioether N-15), the Kd [1] is reported as 0.0511 µM, the Kd [2] is reported as 0.00696 µM and the “dependency koff pH6.0/7.4” value [3] is reported as 8.60.

For `CCC(CC)[C@@H]1NC(=O)[C@H](Cc2ccc(OCC(=O)O)cc2)NC(=O)[C@H](Cc2ccc(O)cc2)NC(=O)[C@H](CC(N)=O)NC(=O)[C@H](Cc2cn(CC(=O)O)c3ccccc23)NC(=O)[C@H](C(C)C)NC(=O)[C@H](Cc2cccc(Cl)c2)N(C)C(=O)[C@H](C(C)C)NC(=O)[C@H](C)NC(=O)CSC[C@@H](C(=O)NCCOCCOCCOCCOCCC(N)=O)NC(=O)[C@H](Cc2ccc(Cl)cc2)N(C)C(=O)[C@H](Cc2cccc(C(=O)O)c2)NC(=O)[C@H](CCCNC(=N)N)NC(=O)[C@H](CCC(N)=O)NC(=O)[C@H]([C@@H](C)CC)NC1=O` [compound 92] ({CH2CO}-AV[NMePhe(3-Cl)]V[Trp(1-CH2COOH)]NYY(Carboxymethyl)[Nva(3-Et)]IQR[Phe(3-COOH)][NMePhe(4-Cl)]C[PEG4]-NH2; thioether N-15), the Kd [1] was 0.0441 µM, the Kd [2] was 0.0138 µM and the “dependency koff pH6.0/7.4” value [3] was 5.47.
